pKi: −log10 of the molar value.
Key:
hCA I = hCA I (Homo sapiens, UniProt P00915); experiment: stopped flow CO2 hydrase assay, hCA I; assay type: biochemical; conditions: mean from three different assays, errors ±5–10%
Experimental: (§1) An applied photophysics stopped-flow instrument has been used for assaying the CA catalysed CO2 hydration activity by using method of Khalifah[34]. Phenol red (at a concentration of 0.2 mM) has been used as an indicator, working at the absorbance maximum of 557 nm, with 20 mM HEPES (pH 7.5) as buffer, and 20 mM Na2SO4 (for maintaining constant the ionic strength), following the initial rates of the CA-catalysed CO2 hydration reaction for a period of 10–100 s. The CO2 concentrations ranged from 1.7 to 17 mM for the determination of the kinetic parameters and inhibition constants. […] The uncatalysed rates were determined in the same manner and subtracted from the total observed rates. Stock solutions of inhibitor (0.1 mM) were prepared in distilled–deionised water and dilutions up to 0.01 nM were done thereafter with the assay buffer. Inhibitor and enzyme solutions were preincubated together for 15 min at room temperature prior to assay, in order to allow the formation of the E–I complex. The inhibition constants were obtained by non-linear least-square methods using PRISM (www.graphpad.com), and non-linear least squares methods, values representing the mean of at least three different determinations, as described earlier by us[35–39].

hCA II = hCA II (Homo sapiens, UniProt P00918); experiment: stopped flow CO2 hydrase assay, hCA II; assay type: biochemical; conditions: mean from three different assays, errors ±5–10%, read-out: KI hCAII
Experimental: as §1

hCA V = hCA V (Homo sapiens, UniProt P35218); experiment: stopped flow CO2 hydrase assay, hCA V; assay type: biochemical; conditions: mean from three different assays, errors ±5–10%
Chain of hCA V (P35218 39-305): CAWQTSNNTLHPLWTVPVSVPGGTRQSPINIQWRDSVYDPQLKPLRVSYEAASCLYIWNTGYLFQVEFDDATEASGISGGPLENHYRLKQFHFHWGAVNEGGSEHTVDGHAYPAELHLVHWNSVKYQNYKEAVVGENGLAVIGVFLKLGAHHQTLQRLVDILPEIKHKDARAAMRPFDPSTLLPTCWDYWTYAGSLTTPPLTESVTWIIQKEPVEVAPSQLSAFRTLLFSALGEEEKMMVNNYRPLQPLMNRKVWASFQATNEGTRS
Experimental: as §1

hCA XIII = hCA XIII (Homo sapiens, UniProt Q8N1Q1); experiment: stopped flow CO2 hydrase assay, hCA XIII; assay type: biochemical; conditions: mean from three different assays, errors ±5–10%
Chain of hCA XIII (Q8N1Q1 whole entry): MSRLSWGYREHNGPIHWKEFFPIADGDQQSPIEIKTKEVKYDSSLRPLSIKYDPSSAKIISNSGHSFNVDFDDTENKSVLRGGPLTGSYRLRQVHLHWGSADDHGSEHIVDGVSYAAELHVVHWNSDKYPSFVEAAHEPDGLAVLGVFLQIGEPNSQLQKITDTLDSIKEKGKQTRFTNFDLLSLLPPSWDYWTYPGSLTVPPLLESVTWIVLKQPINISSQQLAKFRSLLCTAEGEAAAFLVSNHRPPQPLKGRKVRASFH
Experimental: as §1

[1] = DPPH radical scavenging activity
Experimental: Antioxidant activity was determined based on the ability of the antioxidants to act as radical scavengers towards the stable free radical, 1,1-diphenyl-2-picrylhydrazyl (DPPH). As detailed by Yang et al.[40], 1 ml of antioxidant solution (solubilised in ethanol) was added to 3 ml of a 0.1 mM ethanolic solution of DPPH. After 30 min at ambient temperature in darkness, absorbance readings were taken at 517 nm. Inhibition (%) was calculated using the equation [1–(As−Ao)/Ab]×100 where As is the absorbance reading for samples containing antioxidant, Ao is the absorbance of the antioxidant in pure methanol and Ab corresponded to the absorbance of the DPPH solution.

Chain of hCA I (P00915 whole entry): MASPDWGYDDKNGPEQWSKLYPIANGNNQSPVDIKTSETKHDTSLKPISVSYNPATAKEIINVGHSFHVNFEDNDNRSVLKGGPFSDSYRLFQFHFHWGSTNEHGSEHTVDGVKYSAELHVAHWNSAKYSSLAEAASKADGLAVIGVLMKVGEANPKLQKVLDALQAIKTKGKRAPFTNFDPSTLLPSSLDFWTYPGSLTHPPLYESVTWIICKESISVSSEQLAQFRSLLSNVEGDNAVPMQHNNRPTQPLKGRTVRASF

With `Cc1ccc2nc(NC(=O)CNC(=O)OC(C)(C)C)sc2c1` [Compound 2] the pKi (hCA I) was < 4.00, the pKi (hCA II) was 4.13 and the pKi (hCA V) was 4.18. The pKi (hCA XIII) was < 4.00, the “Antioxidant activity, %” value ([1]; 12.5 μg/ml) was 0% and the “Antioxidant activity, %” value ([1]; 25 μg/ml) was 0%. For the same compound, the “Antioxidant activity, %” value ([1]; 37.5 μg/ml) was 3.9%, the “Antioxidant activity, %” value ([1]; 62.5 μg/ml) was 4.6% and the “Antioxidant activity, %” value ([1]; 125 μg/ml) was 6.1%. For the same compound, the melting point was 212 to 213 °C.

Work on `Cc1ccc2nc(NC(=O)CNC(=O)OCc3ccccc3)sc2c1` [Compound 1] yielded a pKi (hCA I) of 5.37, a pKi (hCA II) of 4.49 and a pKi (hCA V) of 5.37. For the same compound, the pKi (hCA XIII) was 4.02, the “Antioxidant activity, %” value ([1]; 12.5 μg/ml) was 0% and the “Antioxidant activity, %” value ([1]; 25 μg/ml) was 0%. The “Antioxidant activity, %” value ([1]; 37.5 μg/ml) was 0%, the “Antioxidant activity, %” value ([1]; 62.5 μg/ml) was 11.4% and the “Antioxidant activity, %” value ([1]; 125 μg/ml) was 12.5%. The melting point was 213 to 214 °C.

In the case of `Cc1c(C)c2c(c(C)c1O)CC[C@@](C)(CCC[C@H](C)CCC[C@H](C)CCCC(C)C)O2` [α-Toc., α-tocopherol, reference compound], the “Antioxidant activity, %” value ([1]; 12.5 μg/ml) was 62.9%, the “Antioxidant activity, %” value ([1]; 25 μg/ml) was 63.4% and the “Antioxidant activity, %” value ([1]; 37.5 μg/ml) was 68.4%. The “Antioxidant activity, %” value ([1]; 62.5 μg/ml) was 72.8% and the “Antioxidant activity, %” value ([1]; 125 μg/ml) was 74.0%.

With “Tert-butyl (4–(6-methylbenzo[d]thiazol-2-yl)-3-oxo-1-phenylbutan-2-yl)carbamate [Compound 4]” the pKi (hCA I) was < 4.00, the pKi (hCA II) was < 4.00 and the pKi (hCA V) was < 4.00. For the same compound, the pKi (hCA XIII) was < 4.00, the “Antioxidant activity, %” value ([1]; 12.5 μg/ml) was 0% and the “Antioxidant activity, %” value ([1]; 25 μg/ml) was 5.7%. The “Antioxidant activity, %” value ([1]; 37.5 μg/ml) was 5.8% and the “Antioxidant activity, %” value ([1]; 62.5 μg/ml) was 9.6%.

With “Benzyl (3–(6-(methylsulfonyl)benzo[d]thiazol-2-yl)-2-oxopropyl)carbamate [Compound 8]” the pKi (hCA I) was 4.05, the pKi (hCA II) was < 4.00 and the pKi (hCA V) was 5.05. For the same compound, the pKi (hCA XIII) was < 4.00, the “Antioxidant activity, %” value ([1]; 12.5 μg/ml) was 0% and the “Antioxidant activity, %” value ([1]; 25 μg/ml) was 2.1%. The “Antioxidant activity, %” value ([1]; 37.5 μg/ml) was 6.6%, the “Antioxidant activity, %” value ([1]; 62.5 μg/ml) was 19.2% and the “Antioxidant activity, %” value ([1]; 125 μg/ml) was 20.7%.

With “Tert-butyl (4–(6-methylbenzo[d]thiazol-2-yl)-3-oxobutan-2-yl)carbamate [Compound 3]” the pKi (hCA I) was 4.04, the pKi (hCA II) was 4.30 and the pKi (hCA V) was 4.06. For the same compound, the pKi (hCA XIII) was < 4.00, the “Antioxidant activity, %” value ([1]; 12.5 μg/ml) was 3.3% and the “Antioxidant activity, %” value ([1]; 25 μg/ml) was 3.4%. For the same compound, the “Antioxidant activity, %” value ([1]; 37.5 μg/ml) was 5.3%, the “Antioxidant activity, %” value ([1]; 62.5 μg/ml) was 7.5% and the “Antioxidant activity, %” value ([1]; 125 μg/ml) was 7.7%.

With `Cc1ccc2nc(-c3ccc(NC(=O)C(Cc4ccccc4)NC(=O)OCc4ccccc4)cc3)sc2c1` (centres unmarked) [Compound 12, Benzyl (1-((4–(6-methylbenzo[d]thiazol-2-yl)phenyl)amino)-1-oxo-3-phenylpropan-2-yl)carbamate] the pKi (hCA I) was < 4.00, the pKi (hCA II) was 4.43 and the pKi (hCA V) was < 4.00. For the same compound, the pKi (hCA XIII) was < 4.00, the “Antioxidant activity, %” value ([1]; 12.5 μg/ml) was 0% and the “Antioxidant activity, %” value ([1]; 25 μg/ml) was 3%. For the same compound, the “Antioxidant activity, %” value ([1]; 37.5 μg/ml) was 3.4%, the “Antioxidant activity, %” value ([1]; 62.5 μg/ml) was 5.8% and the “Antioxidant activity, %” value ([1]; 125 μg/ml) was 6.1%. For the same compound, the melting point was 227 to 228 °C.

For `COc1ccc(O)c(C(C)(C)C)c1` [BHA, reference compound], the “Antioxidant activity, %” value ([1]; 12.5 μg/ml) was 61.1%, the “Antioxidant activity, %” value ([1]; 25 μg/ml) was 63.0% and the “Antioxidant activity, %” value ([1]; 37.5 μg/ml) was 67.5%. For the same compound, the “Antioxidant activity, %” value ([1]; 62.5 μg/ml) was 71.0% and the “Antioxidant activity, %” value ([1]; 125 μg/ml) was 72.4%.

In the case of `CSCCC(NC(=O)OCc1ccccc1)C(=O)Nc1ccc(-c2nc3ccc(C)cc3s2)cc1` (centres unmarked) [Compound 13, Benzyl (1-((4–(6-methylbenzo[d]thiazol-2-yl)phenyl)amino)-4-(methylthio)-1-oxobutan-2-yl)carbamate], the pKi (hCA I) was < 4.00, the pKi (hCA II) was 4.41 and the pKi (hCA V) was 4.39. The pKi (hCA XIII) was 4.07, the “Antioxidant activity, %” value ([1]; 12.5 μg/ml) was 5% and the “Antioxidant activity, %” value ([1]; 25 μg/ml) was 6.7%. For the same compound, the “Antioxidant activity, %” value ([1]; 37.5 μg/ml) was 6.1%, the “Antioxidant activity, %” value ([1]; 62.5 μg/ml) was 7.1% and the “Antioxidant activity, %” value ([1]; 125 μg/ml) was 8.2%. It also gave a melting point of 200 to 201 °C.

With `CCOc1ccc2nc(NC(=O)CNC(=O)OCc3ccccc3)sc2c1` [Compound 5] the pKi (hCA I) was < 4.00, the pKi (hCA II) was 4.08 and the pKi (hCA V) was < 4.00. The pKi (hCA XIII) was < 4.00, the “Antioxidant activity, %” value ([1]; 12.5 μg/ml) was 12.0% and the “Antioxidant activity, %” value ([1]; 25 μg/ml) was 15.0%. The “Antioxidant activity, %” value ([1]; 37.5 μg/ml) was 25.0%, the “Antioxidant activity, %” value ([1]; 62.5 μg/ml) was 32.0% and the “Antioxidant activity, %” value ([1]; 125 μg/ml) was 38.0%. It also gave a melting point of 214 to 215 °C.

In the case of `Cc1ccc2nc(NC(=O)CNC(=O)OCC3c4ccccc4-c4ccccc43)sc2c1` [Compound 9, (9H-Fluoren-9-yl)methyl (2-((6-methylbenzo[d]thiazol-2-yl)amino)-2-oxoethyl)carbamate], the pKi (hCA I) was 4.14, the pKi (hCA II) was < 4.00 and the pKi (hCA V) was 5.14. For the same compound, the pKi (hCA XIII) was < 4.00, the “Antioxidant activity, %” value ([1]; 12.5 μg/ml) was 4% and the “Antioxidant activity, %” value ([1]; 25 μg/ml) was 4.6%. For the same compound, the “Antioxidant activity, %” value ([1]; 37.5 μg/ml) was 5.3%, the “Antioxidant activity, %” value ([1]; 62.5 μg/ml) was 5.8% and the “Antioxidant activity, %” value ([1]; 125 μg/ml) was 6.4%. It also gave a melting point of 220 to 221 °C.

In the case of `Cc1cccc2sc(NC(=O)CNC(=O)OCC3c4ccccc4-c4ccccc43)nc12` [Compound 11, (9H-Fluoren-9-yl)methyl (2-((4-methylbenzo[d]thiazol-2-yl)amino)-2-oxoethyl)carbamate], the pKi (hCA I) was < 4.00, the pKi (hCA II) was 4.06 and the pKi (hCA V) was 4.13. The pKi (hCA XIII) was < 4.00, the “Antioxidant activity, %” value ([1]; 12.5 μg/ml) was 5% and the “Antioxidant activity, %” value ([1]; 25 μg/ml) was 6.7%. The “Antioxidant activity, %” value ([1]; 37.5 μg/ml) was 6.9%, the “Antioxidant activity, %” value ([1]; 62.5 μg/ml) was 7.1% and the “Antioxidant activity, %” value ([1]; 125 μg/ml) was 8.2%. For the same compound, the melting point was 218 to 219 °C.

For “Benzyl (4–(6-ethoxybenzo[d]thiazol-2-yl)-3-oxo-1-phenylbutan-2-yl)carbamate [Compound 6]”, the pKi (hCA I) was < 4.00, the pKi (hCA II) was < 4.00 and the pKi (hCA V) was < 4.00. The pKi (hCA XIII) was < 4.00, the “Antioxidant activity, %” value ([1]; 12.5 μg/ml) was 11.0% and the “Antioxidant activity, %” value ([1]; 25 μg/ml) was 14.0%. The “Antioxidant activity, %” value ([1]; 37.5 μg/ml) was 23.0%, the “Antioxidant activity, %” value ([1]; 62.5 μg/ml) was 32.0% and the “Antioxidant activity, %” value ([1]; 125 μg/ml) was 37.0%.

With `CS(=O)(=O)c1ccc2nc(NC(=O)CNC(=O)OCC3c4ccccc4-c4ccccc43)sc2c1` [Compound 10, (9H-Fluoren-9-yl)methyl(2-((6-(methylsulfonyl)benzo[d]thiazol-2-yl)amino)-2-oxoethyl)carbamate] the pKi (hCA I) was 5.15, the pKi (hCA II) was < 4.00 and the pKi (hCA V) was 5.54. The pKi (hCA XIII) was < 4.00, the “Antioxidant activity, %” value ([1]; 12.5 μg/ml) was 0% and the “Antioxidant activity, %” value ([1]; 25 μg/ml) was 0%. The “Antioxidant activity, %” value ([1]; 37.5 μg/ml) was 22.5%, the “Antioxidant activity, %” value ([1]; 62.5 μg/ml) was 23.1% and the “Antioxidant activity, %” value ([1]; 125 μg/ml) was 24.5%.

With `CCOc1ccc2nc(NC(=O)CNC(=O)OC(C)(C)C)sc2c1` [Compound 7] the pKi (hCA I) was < 4.00, the pKi (hCA II) was < 4.00 and the pKi (hCA V) was 4.22. For the same compound, the pKi (hCA XIII) was < 4.00, the “Antioxidant activity, %” value ([1]; 12.5 μg/ml) was 13.0% and the “Antioxidant activity, %” value ([1]; 25 μg/ml) was 15.0%. For the same compound, the “Antioxidant activity, %” value ([1]; 37.5 μg/ml) was 22.5%, the “Antioxidant activity, %” value ([1]; 62.5 μg/ml) was 24.8% and the “Antioxidant activity, %” value ([1]; 125 μg/ml) was 28.3%. For the same compound, the melting point was 171 to 172 °C.
